Reference: patent US20100317703A1, “METHOD FOR INHIBITING BRASSININ OXIDASE” (UNIVERSITY OF SASKATCHEWAN, priority 2009, published 2010)

Columns and labels:
brassinin oxidase (BO) [1] = assay: Inhibitory effect of paldoxins on purified BO (brassinin as substrate, HPLC-DAD); type: biochemical, Leptosphaeria maculans; conditions: for Inhibiton (%) of BO: brassinin 0.10 mM, purified BO, ± SD of four independent experiments
Method: For purification of brassinin oxidase, 600 mL of 48 h old liquid cultures prepared as described above, were incubated with 3-phenylindole (19, 0.05 mM final concentration in cultures to induce BO) for an additional 24 h and then gravity filtered to separate mycelia from culture broth. The mycelia was stored at −20° C. up to 72 h and used to obtain protein extracts containing BO activity.
(§1) The reaction mixture contained DEA (20 mM, pH 8.3), DTT (1 mM), 0.1% (v/v) Triton X-100, brassinin (1, 1.0 mM), phenazine (0.50 mM), and protein extract (50-100 μL) in a total volume of 500 μL. The reaction was carried out at 24° C. for 20 min. A control reaction was stopped by the addition of EtOAc (2 mL) at t=0. The product was extracted with EtOAc (2 mL) and concentrated to dryness. The extract was dissolved in CH3CN (200 μL) and analyzed by HPLC-DAD. The amounts of brassinin (1) and indole-3-carboxaldehyde (3) in the reaction assay were determined using calibration curves built with […]. One enzyme unit (U) is defined as the amount of the enzyme that catalyzes the conversion of one micromole of substrate per minute (μmol·min^−1=U).
The purification of BO was performed in four steps as previously described.^17 The purified enzyme was used for screening test compounds for inhibitory activity. To determine potential inhibitors of BO, inhibition experiments were carried out using brassinin (1, 0.10 mM final concentration) and test compounds (0.10 and 0.30 mM final concentrations). Standard deviation values for assays were determined from four independent experiments.
The inhibitory effects of test compounds on BO activity were tested at 0.10 mM and 0.30 mM using brassinin (1) as substrate (0.10 mM) and purified BO.

[2] = tested on: brassinin oxidase (BO) activity in mycelial cultures of L. maculans; assay: Inducer effect of paldoxins: BO activity in cell-free extracts of treated mycelial cultures; type: cell-based, Leptosphaeria maculans; conditions: 24 h, control culture = 1.0
Method: (§2) Liquid cultures of L. maculans (virulent isolate BJ-125, IBCN collection, AAFC) were handled as described in the literature.^13 Fungal spores were subcultured on V8 agar under continuous light at 23±1° C.; after 15 days, fungal spores were collected aseptically and stored at −20° C.^14 Liquid cultures were initiated by inoculating minimal media (100 mL)^15 with fungal spores at 10^7/mL in Erlenmeyer flasks, followed by incubation on a shaker under constant light at 23±1° C.
(§3) For analysis of BO induction, 72 h old liquid cultures (20 mL) were co-incubated with test compounds (final concentrations in culture 0.10, 0.20, and 0.50 mM), and after an additional incubation for 24 h, the mycelia were separated from the culture broth by filtration.
(§4) Frozen mycelia (0.3-1.4 g) from L. maculans were suspended in ice-cold extraction buffer (1 mL) and ground (mortar) for 5 min. The extraction buffer consisted of diethanolamine(DEA, 25 mM, pH 8.3), 5% (v/v) glycerol, D,L-dithiothreitol (DTT, 1 mM), and 1/200 (v/v) protease inhibitor cocktail (P-8215, Sigma-Aldrich Canada). The homogenate was centrifuged at 4° C. for 30 min at 50000 g. The resulting supernatant was used for determination of specific activity of BO. Protein concentrations were determined as described by Bradford^16 using the Coomassie Brilliant Blue method with BSA as a standard.
as §1
(§5) Mycelial cultures of L. maculans were incubated with the test compounds (0.10, 0.20, and 0.50 mM) for 24 h to evaluate potential induction of BO activity. The cultures were filtered, the mycelia were extracted with extraction buffer, and the resulting cell-free extracts were analyzed for BO activity using brassinin (1) as substrate. The total protein content of each cell-free extract was determined using a calibration curve built using BSA.

[3] = tested on: mycelial cultures of L. maculans; assay: Antifungal activity: total protein content of cell-free extracts of treated mycelial cultures; type: cell-based, Leptosphaeria maculans; conditions: 24 h, control culture = 1.0
Method: as §2, §3, §4, §5

brassinin oxidase (BO) [4] = conditions: 0.30 mM; reference compound, cited from ref. 17; cited from earlier work
[5] = 0.10 mM added to mycelial cultures
[6] = 0.20 mM added to mycelial cultures
[7] = 0.50 mM added to mycelial cultures

| Compound | Inhibiton (%) of BO (brassinin oxidase (BO) [1]; test compound 0.10 mM) [%] | Inhibiton (%) of BO (brassinin oxidase (BO) [1]; test compound 0.30 mM) [%] | Relative Specific Activity of BO [2, 5] | Relative Specific Activity of BO [2, 6] | Relative Specific Activity of BO [2, 7] | Relative Protein [3, 5] | Relative Protein [3, 6] | Relative Protein [3, 7] | other results |
| --- | --- | --- | --- | --- | --- | --- | --- | --- | --- |
| c1ccc2c(-c3nccs3)c[nH]c2c1 [Camalexin] | 30 ± 4 | 53 ± 4 | 4.5 ± 0.5 | 6.9±0.3 | 2.5 ± 0.1 | 0.28 | 0.24 | 0.10 | Inhibiton (%) of BO (brassinin oxidase (BO) [1]; test compound 0.30 mM, listed as Camalexin I(h)): 53 ± 7%; Inhibiton (%) of BO (brassinin oxidase (BO) [1]; test compound 0.30 mM, listed as camalexin): 53% |
| CSC1=NCc2c([nH]c3ccccc23)S1 [Cyclobrassinin] | 23 ± 6 | 37 ± 8 | – | – | – | – | – | – | – |
| c1ccc2cc(-c3cnsc3)ccc2c1 [I(g)] | – | – | 2.6 ± 0.2 | 8.5 ± 0.1 | 16.3 ± 3.3 | 0.26 | 0.17 | 0.16 | – |
| c1ccc2[nH]c(-c3cscn3)nc2c1 [Thiabendazole, reference compound] | 16 ± 3 | 25 ± 7 | 1.9 ± 0.2 | 4.1 ± 0.2 | 4.9 ± 0.3 | 0.35 | 0.28 | 0.06 | BO inhibitory activity (brassinin oxidase (BO) [4]): ca. 25% |
| CSC(=S)NCc1c[nH]c2ccccc12 [brassinin, Brassinin] | – | – | – | – | – | – | – | – | Km (brassinin oxidase (BO) [1]; under the enzyme assay conditions): 150 µM |

Now from value to compound, other results behind:

| Inhibiton (%) of BO (brassinin oxidase (BO) [1]; test compound 0.10 mM) [%] | Inhibiton (%) of BO (brassinin oxidase (BO) [1]; test compound 0.30 mM) [%] | Compound | Relative Specific Activity of BO [2, 5] | Relative Specific Activity of BO [2, 6] | Relative Specific Activity of BO [2, 7] | Relative Protein [3, 5] | Relative Protein [3, 6] | Relative Protein [3, 7] | other results |
| --- | --- | --- | --- | --- | --- | --- | --- | --- | --- |
| 47 ± 5 | – | Fc1ccc2[nH]cc(-c3nccs3)c2c1 [I(a), 5-Fluorocamalexin] | 5.0 ± 0.2 | 4.9 ± 0.4 | 7.9 ± 0.6 | 0.30 | 0.23 | 0.19 | Inhibiton (%) of BO (brassinin oxidase (BO) [1]; test compound 0.30 mM, listed as 5-Fluorocamalexin I(a)): 63 ± 2%; Inhibiton (%) of BO (brassinin oxidase (BO) [1]; test compound 0.30 mM, listed as 5-fluorocamalexin I(a)): ca. 63% |
| 29 ± 10 | 46 | Fc1ccc2c(-c3nccs3)c[nH]c2c1 [I(b), 6-Fluorocamalexin] | 3.9 ± 0.1 | 4.0 ± 0.2 | 1.8 ± 0.3 | 0.36 | 0.28 | 0.24 | – |
| 51 ± 4 | – | COc1ccc2[nH]cc(-c3nccs3)c2c1 [I(c), 5-Methoxycamalexin] | 1.7 ± 0.3 | 5.8 ± 0.6 | 1.6 ± 0.3 | 0.28 | 0.24 | 0.13 | Inhibiton (%) of BO (brassinin oxidase (BO) [1]; test compound 0.30 mM, listed as 5-Methoxycamalexin I(c)): 72 ± 1%; Inhibiton (%) of BO (brassinin oxidase (BO) [1]; test compound 0.30 mM, listed as 5-methoxycamalexin I(c)): ca. 72% |
| 41 ± 6 | – | COc1ccc2c(-c3nccs3)c[nH]c2c1 [I(d), 6-Methoxycamalexin] | 2.3 ± 0.1 | 3.7 ± 0.2 | 4.0 ± 0.1 | 0.27 | 0.16 | 0.11 | Inhibiton (%) of BO (brassinin oxidase (BO) [1]; test compound 0.30 mM, listed as 6-Methoxycamalexin I(d)): 63 ± 5%; Inhibiton (%) of BO (brassinin oxidase (BO) [1]; test compound 0.30 mM, listed as 6-methoxycamalexin I(b)): ca. 63% |
| 11 ± 4 | 17 ± 6 | Fc1ccc2c(-c3ccccc3)c[nH]c2c1 [I(e), 6-Fluoro-3-phenylindole] | – | – | – | – | – | – | – |
| 11 ± 5 | 23 ± 6 | CSC(=S)NCc1cc2ccccc2[nH]1 [Isobrassinin] | – | – | – | – | – | – | – |
